# What was measured:
# [1] = system: hypertensive and proteinuric L-NAME treated renin-transgenic (mRen2)27 rats; assay: Non-diabetic cardiorenal rat model: L-NAME treated renin-transgenic (mRen2)27 rats; conditions: up to 7 weeks
# Experimental: Cardiorenal morbidity and mortality was studied in hypertensive and proteinuric L-NAME (20 mg/L) treated renin-transgenic (mRen2)27 rats. […] Key outcome parameters included mortality, blood pressure, proteinuria, kidney histology and gene expression.
# Female TGR(mRen2)27 renin rats aged 10 to 20 weeks are randomized to different pharmacological treatment groups and a placebo group. In addition, the nitrogen monoxide synthase inhibitor L-NAME is administered via the drinking water in a concentration of 20 to 100 mg/l. During the entire experiment, drinking water and feed are available ad libitum to the animals. The substances are administered via the feed or daily by gavage for 4-10 weeks. Animals treated in the same way but receiving either only the solvent or the feed without test substance serve as placebo group. During the experiment, the systolic blood pressure is determined at regular intervals using a tail cuff, and proteinuria (expressed as ratio of urinary protein concentration per urinary creatinine concentration) and urine electrolyte composition are determined by collecting the urine in metabolic cages, and mortality is registered on a daily base.
# The urine volume per collection time was determined separately for each animal, and the concentration of urinary glucose and electrolyte ions excreted in the urine was measured by standard methods by a clinical-chemical analyzer system (ADVIA 2400, Siemens). The urine was typically collected for 24 hours in metabolic cages.
# [2] = system: Wistar rats with activated renin-angiotensin-aldosterone system; assay: In vivo assay for detecting natriuretic activity in conscious rats with activated RAAS; set-up: species or system rat; conditions: for Urinary Glucose concentration / Urinary K+ concentration / Urinary Na+ concentration / Urinary Volume/ body weight: 24 h urine, mean ± SEM
# Experimental: Wistar rats (ca. 250-500 g body weight) were kept with free access to feed (Altromin) and drinking water. […] This sodium-reduced feed causes an activation of the RAAS in the animals during the 3 days run-in phase and therefore mimics a neuroendocrine activation which is characteristic for cardiorenal diseases. […] At the start of the test, the substance to be tested was administered by means of gavage in a volume of 2-3 ml/kg of body weight of a suitable solvent PEG400). Control animals received only solvent (‘S’ or solvent in table 2 below). Controls and substance tests were carried out in parallel on the same day. Control groups and substance-dose groups each consisted of 6 to 10 animals. During the test, the urine excreted by the animals was continuously collected in a receiver on the base of the cage.
# In this comparison, eight different administrations were performed (cf. groups A to H):
# Group A received the solvent (PEG400) only. This group serves as control group.
# Groups B, C and D received three increasing dosages of empagliflozin (SGLT2 inhibitor) only. It serves to detect the effects of the monotherapy with SGLT2 inhibitor.
# Group E received a finerenone only. It serves to detect the effect of the monotherapy with finerenone.
# Groups F, G and H received finerenone and the three doses of SGLT2 inhibitor in combination, respectively. It serves to detect the effect of the combined therapy with finerenone and empagliflozin (SGLT2 inhibitor) (combination according to the invention).
# (§1) After the treatment, the urinary volume, urinary glucose, urinary sodium and potassium concentrations were measured.
# [3] = system: Zucker diabetic fatty (ZDF) rats; assay: In vivo assay for detecting natriuretic activity in chronically treated Zucker diabetic fatty rats; set-up: species or system rat; conditions: for Urinary Glucose concentration / Urinary K+ concentration / Urinary Na+ concentration / Urinary Volume/ body weight: Table 3, 24 h urine, mean ± SEM; for Urinary Glucose concentration / Urinary K+ concentration / Urinary Na+ concentration / Urinary Volume/ body weight / urinary sodium excretion higher in comparison to solvent control group A: ZDF rats treated 9 weeks; for influence on urinary glucose vs solvent, in words / influence on urinary potassium vs solvent, in words / influence on urinary sodium vs solvent, in words / influence on urinary volume vs solvent, in words: ZDF rats, chronic monotherapy 3 and 10 mg/kg/day, 9 weeks
# Description: The Zucker diabetic fatty (ZDF) rat has a missense mutation in the gene coding the leptin receptor (fa/fa) and spontaneously develops insulin resistance, type 2 diabetes mellitus (T2DM), hyperlipidemia, moderate hypertension, and obesity, as well as progressive renal injury. Male homozygous animals develop diabetes mellitus from week 7 to 19 which is reflected in marked hyperglycemia. In addition to diabetic cardiac lesions (e.g. hypertrophy), renal pathology develops with proteinuria, mesangial expansion, macrophage infiltration, and interstitial fibrosis. Heterozygous animals are useful non-diabetic control animals since they develop neither obesity nor insulin resistance.
# Male 6-7 weeks old obese (fa/fa) Zucker rats (Charles River) were placed on a high energy diet (Purina Rodent LabDiet 5008, PMI Nutrition. Richmond. Ind.) and were randomized to treatment groups or solvent group when the animals were hyperglycemic. Rats (n=14-16/group) received either solvent [ethanol/Solutol/H2O (10/40/50)] or test compounds in solvent once daily applied to (fa/fa) animals for 4 to 12 weeks.
# During the experiment, the systolic blood pressure (determined by tail cuff), urine parameters (e.g. protein, glucose, electrolytes, creatinine, urea and uric acid) and blood plasma parameters (e.g. electrolytes, glucose, creatinine, urea and uric acid) were determined at regular intervals.
# Histopathology is performed with cardiac and renal tissue from animals of treatment groups and placebo groups.
# In this comparison, six different administrations were performed:
# Group A received the solvent [ethanol/Solutol/H2O (10/40/50)] only. This group serves as control group.
# Groups B and C received two increasing dosages of empagliflozin (SGLT2 inhibitor) only. It serves to detect the effects of the monotherapy with empagliflozin (SGLT2 inhibitor).
# Groups D and E received increasing dosages of finerenone only. It serves to detect the effect of the monotherapy with finerenone.
# Group F received a combination of the low dosages of empagliflozin (SGLT2 inhibitor) and finerenone, respectively. It serves to detect the effect of the combined therapy with finerenone and empagliflozin (SGLT2 inhibitor) (combination according to the invention).
# as §1
# healthy volunteers = conditions: dose-dependently induced during the first 24 h; cited from earlier work
# [4] = Table 2, monotherapy 1 mg/kg oral
# [5] = Table 2 study, monotherapy: empagliflozin 1, 3, 10 mg/kg, finerenone 1 mg/kg
# [6] = Table 4, monotherapy 1 mg/kg oral
# [7] = Table 4 study, monotherapy: canagliflozin 1 and 3 mg/kg, finerenone 1 mg/kg
# [8] = Table 5, monotherapy 1 mg/kg oral
# [9] = Table 5 study, monotherapy: dapagliflozin 0.03 and 0.3 mg/kg, finerenone 1 mg/kg
# [10] = Table 5 study, monotherapy: dapagliflozin all doses (0.03, 0.3, 3 mg/kg), finerenone 1 mg/kg
# [11] = Table 5, monotherapy 0.03 mg/kg oral
# [12] = Table 5, monotherapy 0.3 mg/kg oral
# [13] = Table 5, monotherapy 3 mg/kg oral
# [14] = Table 5 study, monotherapy 3 mg/kg
# [15] = Table 2, monotherapy 3 mg/kg oral
# [16] = Table 2, monotherapy 10 mg/kg oral
smiles,measurement,setting,value
"CCOc1ncc(C)c2c1[C@H](c1ccc(C#N)cc1OC)C(C(N)=O)=C(C)N2 [finerenone, (S)-4-(4-cyano-2-methoxyphenyl)-5-ethoxy-2,8-dimethyl-1,4-dihydro-1,6-naphthyridin-3-carboxamide]",proteinuria reduction,[1]; 1 mg/kg once daily orally,−27%
same,proteinuria reduction,[1]; 3 mg/kg once daily orally,−87%
same,"renal histology parameters / renal lesions, in words",[1]; once daily orally,comparable protection from renal lesions at higher dosages
same,"systolic blood pressure, in words",[1]; once daily orally,significantly decreased
same,Urinary Glucose concentration,[2]; [4],b.d.l.
same,Urinary K+ concentration,[2]; [4],1.46 ± 0.12 mmol
same,Urinary Na+ concentration,[2]; [4],0.43 ± 0.03 mmol
same,Urinary Volume/ body weight,[2]; [4],0.0219 ± 0.00186 L/kg
same,"influence on urinary glucose, in words",[2]; [5],no influence
same,"influence on urinary potassium, in words",[2]; [5],no influence
same,"influence on urinary sodium, in words",[2]; [5],increase
same,"influence on urinary volume, in words",[2]; [5],no influence
same,Urinary Glucose concentration,[2]; [6],b.d.l.
same,Urinary K+ concentration,[2]; [6],1.76 ± 0.11 mmol
same,Urinary Na+ concentration,[2]; [6],0.27 ± 0.06 mmol
same,Urinary Volume/ body weight,[2]; [6],0.02932 ± 0.00294 L/kg
same,"influence on urinary potassium, in words",[2]; [7],no influence
same,"influence on urinary sodium, in words",[2]; [7],weak increase
same,"influence on urinary volume, in words",[2]; [7],no influence
same,"influence on urinary glucose, in words","[2]; Table 4 study, monotherapy: canagliflozin all doses (1, 3, 10 mg/kg), finerenone 1 mg/kg",no influence
same,Urinary Glucose concentration,[2]; [8],b.d.l.
same,Urinary K+ concentration,[2]; [8],1.84 ± 0.10 mmol
same,Urinary Na+ concentration,[2]; [8],0.33 ± 0.43 mmol
same,Urinary Volume/ body weight,[2]; [8],0.02344 ± 0.00162 L/kg
same,"influence on urinary potassium, in words",[2]; [9],no influence
same,"influence on urinary sodium, in words",[2]; [9],increase
same,"influence on urinary volume, in words",[2]; [9],no influence
same,"influence on urinary glucose, in words",[2]; [10],no influence
same,Urinary Glucose concentration,[3]; monotherapy 3 mg/kg,291.98 ± 19.11 mmol
same,Urinary K+ concentration,[3]; monotherapy 3 mg/kg,1.94 ± 0.14 mmol
same,Urinary Na+ concentration,[3]; monotherapy 3 mg/kg,1.39 ± 0.12 mmol
same,Urinary Volume/ body weight,[3]; monotherapy 3 mg/kg,0.08184 ± 0.01199 L/kg
same,Urinary Glucose concentration,[3]; monotherapy 10 mg/kg,272.62 ± 22.51 mmol
same,Urinary K+ concentration,[3]; monotherapy 10 mg/kg,1.75 ± 0.06 mmol
same,Urinary Na+ concentration,[3]; monotherapy 10 mg/kg,1.30 ± 0.08 mmol
same,Urinary Volume/ body weight,[3]; monotherapy 10 mg/kg,0.05682 ± 0.00259 L/kg
same,urinary sodium excretion higher in comparison to solvent control group A,[3]; monotherapy 3 mg/kg,20.1%
same,"influence on urinary glucose vs solvent, in words",[3],no influence
same,"influence on urinary potassium vs solvent, in words",[3],no influence
same,"influence on urinary sodium vs solvent, in words",[3],no influence
same,"influence on urinary volume vs solvent, in words",[3],no influence
"CCOc1ccc(Cc2cc([C@@H]3O[C@H](CO)[C@@H](O)[C@H](O)[C@H]3O)ccc2Cl)cc1 [dapagliflozin, (2S,3R,4R,5S,6R)-2-[4-chloro-3-[(4-ethoxyphenyl)methyl]phenyl]-6-(hydroxymethyl)oxane-3,4,5-triol]",Urinary Glucose concentration,[2]; [11],0.72 ± 0.18 mmol
same,Urinary K+ concentration,[2]; [11],2.21 ± 0.16 mmol
same,Urinary Na+ concentration,[2]; [11],0.19 ± 0.05 mmol
same,Urinary Volume/ body weight,[2]; [11],0.03917 ± 0.00408 L/kg
same,Urinary Glucose concentration,[2]; [12],5.26 ± 0.29 mmol
same,Urinary K+ concentration,[2]; [12],2.43 ± 0.07 mmol
same,Urinary Na+ concentration,[2]; [12],0.19 ± 0.04 mmol
same,Urinary Volume/ body weight,[2]; [12],0.03884 ± 0.00394 L/kg
same,Urinary Glucose concentration,[2]; [13],9.71 ± 0.36 mmol
same,Urinary K+ concentration,[2]; [13],2.34 ± 0.10 mmol
same,Urinary Na+ concentration,[2]; [13],0.29 ± 0.05 mmol
same,Urinary Volume/ body weight,[2]; [13],0.04872 ± 0.00153 L/kg
same,"influence on urinary sodium, in words",[2]; [14],increase
same,"influence on urinary volume, in words",[2]; [14],increase
same,"influence on urinary potassium, in words",[2]; [9],no influence
same,"influence on urinary sodium, in words",[2]; [9],no influence
same,"influence on urinary volume, in words",[2]; [9],no influence
same,"influence on urinary glucose, in words",[2]; [10],strong increase
same,"natriuresis, in words",healthy volunteers,returned to baseline after 13 days of intervention
"OC[C@H]1O[C@@H](c2ccc(Cl)c(Cc3ccc(O[C@H]4CCOC4)cc3)c2)[C@H](O)[C@@H](O)[C@@H]1O [empagliflozin, (2S,3R,4R,5S,6R)-2-[4-chloro-3-[[4-[(3S)-oxolan-3-yl]oxyphenyl]methyl]phenyl]-6-(hydroxymethyl)oxane-3,4,5-triol]",proteinuria reduction,[1]; 3 mg/kg once daily orally,−38%
same,proteinuria reduction,[1]; 10 mg/kg once daily orally,−64%
same,"glucosuric action, in words",[1]; once daily orally,strongly glucosoric
same,"renal histology parameters / renal lesions, in words",[1]; once daily orally,comparable protection from renal lesions at higher dosages
same,Urinary Glucose concentration,[2]; [4],0.34 ± 0.10 mmol
same,Urinary K+ concentration,[2]; [4],1.66 ± 0.11 mmol
same,Urinary Volume/ body weight,[2]; [4],0.0278 ± 0.00358 L/kg
same,Urinary Glucose concentration,[2]; [15],1.21 ± 0.21 mmol
same,Urinary K+ concentration,[2]; [15],1.74 ± 0.15 mmol
same,Urinary Na+ concentration,[2]; [15],0.13 ± 0.02 mmol
same,Urinary Volume/ body weight,[2]; [15],0.02296 ± 0.00275 L/kg
same,Urinary Glucose concentration,[2]; [16],4.26 ± 0.59 mmol
same,Urinary K+ concentration,[2]; [16],1.85 ± 0.11 mmol
same,Urinary Na+ concentration,[2]; [16],0.17 ± 0.03 mmol
same,Urinary Volume/ body weight,[2]; [16],0.02845 ± 0.00191 L/kg
same,"influence on urinary glucose, in words",[2]; [5],dose-dependent and strong increase
same,"influence on urinary potassium, in words",[2]; [5],no influence
same,"influence on urinary sodium, in words",[2]; [5],no influence
same,"influence on urinary volume, in words",[2]; [5],no influence
same,Urinary Glucose concentration,[3]; monotherapy 3 mg/kg,321.55 ± 22.78 mmol
same,Urinary K+ concentration,[3]; monotherapy 3 mg/kg,2.22 ± 0.13 mmol
same,Urinary Na+ concentration,[3]; monotherapy 3 mg/kg,1.47 ± 0.10 mmol
same,Urinary Volume/ body weight,[3]; monotherapy 3 mg/kg,0.09998 ± 0.00712 L/kg
same,Urinary Glucose concentration,[3]; monotherapy 10 mg/kg,317.16 ± 25.10 mmol
same,Urinary K+ concentration,[3]; monotherapy 10 mg/kg,2.64 ± 0.20 mmol
same,Urinary Na+ concentration,[3]; monotherapy 10 mg/kg,2.05 ± 0.27 mmol
same,Urinary Volume/ body weight,[3]; monotherapy 10 mg/kg,0.11038 ± 0.00455 L/kg
same,urinary sodium excretion higher in comparison to solvent control group A,[3]; monotherapy 3 mg/kg,27.2%
same,"influence on urinary glucose vs solvent, in words",[3],increases
same,"influence on urinary potassium vs solvent, in words",[3],increases
same,"influence on urinary sodium vs solvent, in words",[3],increases
same,"influence on urinary volume vs solvent, in words",[3],increases

# Source: US20230201174A1, “COMBINATION OF FINERENONE AND A SGLT2 INHIBITOR FOR THE TREATMENT AND/OR PREVENTION OF CARDIOVASCULAR AND/OR RENAL DISEASES” (BAYER AKTIENGESELLSCHAFT, priority 2020, published 2023)
